Data from ChEMBL document CHEMBL1152934, “Quinazolindione derivatives as potent 5-HT3A receptor antagonists” (Bioorg Med Chem, 2009).

What follows are compounds tested against 5-hydroxytryptamine receptor 3A (Mus musculus) (UniProt P23979) (assay: Antagonist activity at 5HT3A receptor expressed in Xenopus oocyte).
Chain of 5-hydroxytryptamine receptor 3A (Mus musculus) (P23979 whole entry, looked up): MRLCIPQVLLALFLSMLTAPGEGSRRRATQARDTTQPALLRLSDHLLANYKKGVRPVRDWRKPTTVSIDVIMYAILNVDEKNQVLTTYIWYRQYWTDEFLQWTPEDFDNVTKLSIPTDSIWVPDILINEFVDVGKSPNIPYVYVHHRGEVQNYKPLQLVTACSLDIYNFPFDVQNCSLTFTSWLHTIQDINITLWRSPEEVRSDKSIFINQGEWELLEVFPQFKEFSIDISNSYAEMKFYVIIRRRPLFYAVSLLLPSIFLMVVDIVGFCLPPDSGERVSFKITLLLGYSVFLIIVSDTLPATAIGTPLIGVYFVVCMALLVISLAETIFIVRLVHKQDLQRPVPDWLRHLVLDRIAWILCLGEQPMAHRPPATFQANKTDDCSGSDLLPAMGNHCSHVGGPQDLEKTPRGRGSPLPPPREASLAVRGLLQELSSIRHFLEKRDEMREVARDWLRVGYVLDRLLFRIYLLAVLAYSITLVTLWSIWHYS

In order of rising IC50:
1. O=C(NCCN1CCCCC1)c1ccc2c(=O)n(Cc3ccccc3Cl)c(=O)[nH]c2c1  2.1 µM
2. CC1CCCCN1CCCNC(=O)c1ccc2c(=O)n(C3CCCCC3)c(=O)[nH]c2c1 (configuration not stated)  5.9 µM
3. CC1CCCCN1CCCNC(=O)c1ccc2c(=O)n(Cc3ccc(Cl)cc3)c(=O)[nH]c2c1 (configuration not stated)  11.6 µM
4. CCC1CCCCN1CCNC(=O)c1ccc2c(=O)n(Cc3ccc(Cl)cc3)c(=O)[nH]c2c1 (configuration not stated)  13.6 µM
5. O=C(NCCN1CCOCC1)c1ccc2c(=O)n(Cc3ccc(Cl)cc3)c(=O)[nH]c2c1  15.8 µM
6. O=C(NCCN1CCOCC1)c1ccc2c(=O)n(Cc3ccc(F)cc3)c(=O)[nH]c2c1  19.8 µM
7. O=C(NCCN1CCOCC1)c1ccc2c(=O)n(-c3ccc(F)cc3)c(=O)[nH]c2c1  57 µM
